# Source: patent US20160220542A1, “SYNERGISTIC ACTIVITY OF MODULATORS OF THE NO METABOLISM AND OF NADPH OXIDASE IN THE SENSITISATION OF TUMOR CELLS” (Universitaetsklinikum Freiburg, priority 2010, published 2016)
# What was measured:
# [1] = tested on: transformed rat fibroblast line 208Fsrc3; assay: autocrine, ROS mediated apoptosis induction in transformed cells; type: cell-based; settings: 22 hours; for effect of higher SOD concentrations on apoptosis: concentrations above maximum inhibition; for effect on autocrine apoptosis: 50 mM taurine, 150 μM ABH or 10 mM mannitol
# Procedure: 12 500 cells of the transformed rat fibroblast line 208Fsrc3 per 100 μl complete medium were sown in 96 hole plates. Following growth 20 ng/ml TGF-beta-1 were added to all preparations. To the preparations the stated concentrations of Cu SOD (from bovine erythroctes) or Mn SOD (from E. coli) were added. Some of the preparations received 50 mM of the HOCl receptor taurine (TAU), 150 μM of the peroxidase inhibitor 4-aminobenzoylhydrazide (ABH) or 10 mM of the hydroxyl radical scavenger mannitol. After 22 hours the percentages of apoptotic cells were determined on the basis of the conventional apoptosis characteristics of nuclear condensation, nuclear fragmentation or membrane blebbing in each case in duplicate preparations.
# 208Fsrc3 cells = assay: EUK-8-mediated apoptosis induction, Cu SOD bell curve; type: cell-based, rat
# Procedure: 12 500 208Fsrc3 cells in 100 μl (96 hole plate) had increasing concentrations of Cu SOD added in the presence of 120 μM EUK-8. After 5 hours the percentage of apoptotic cells was determined in duplicate preparations.
# The indicated cell counts (208Fsrc3) in 100 μl medium had increasing concentrations of Cu SOD added in the presence of 120 μM EUK-8. After 1.5 hours in duplicate preparations the percentages of apoptotic cells were determined. There is a direct dependency between the SOD concentration at the vertex and the number of cells per preparation. Since this in turn determines the total concentration of available superoxide anions, there is a correlation between SOD concentration at the vertex and the superoxide anions concentration achieved.
# [2] = tested on: extracellular superoxide anion production of MKN-45 cells; assay: extracellular superoxide anion production of MKN-45 cells (Cu SOD bell curve shift); type: cell-based; settings: for stimulation of the NADPH oxidase: higher concentration range of the substances
# MKN-45 cells = assay: apoptosis induction in MKN-45 tumour cells, single substances and combinations; type: cell-based
# Procedure: 12 500 MKN-45 cells in 100 μl medium were prepared with the stated concentrations of arginine in combination with 0.2 or 20 μM resveratrol. Control preparations received arginine at between 0 and 5 mM, but remained free of resveratrol. After 4.5 hours the percentages of apoptotic cells were determined (duplicate preparations).
# In addition, 25 μM caspase-8 inhibitor were added or not added to the stated combinations of arginine and resveratrol. Assessment after 4.5 hours.
# 12 500 MKN-45 cells in 100 μl had 10 μg/ml Taxol or 0.013 μg/ml Taxol in combination or not with the stated concentrations of resveratrol added. […] After 4.5 hours in duplicate preparations the percentages of apoptotic cells were determined.
# 12 500 MKN-45 cells in 100 μl medium received either no addition of substances, 25 ng/ml epothilone B, 0.75 ng/ml epothilone B, 25 μg/ml resveratrol or the combination of 0.75 ng/ml epothilone B with 25 μg/ml resveratrol. After 3 hours the percentages of apoptotic cells were determined in duplicate preparations.
# 12 500 MKN 45 cells in 100 μl medium received none of the stated additives. After 3 hours an assessment was made of the duplicate preparations.
# NO dioxygenase (NOD) = assay: inhibition of NO dioxygenase (DEA NONOate-dependent apoptosis in MKN-45 cells); type: cell-based; settings: for available NO concentration through inhibition of the NOD: broad concentration range; for effect on available NO concentration (NOD inhibition): as Example 10, 3 hours
# Procedure: This test is based on the fact that NOD also effectively converts exogenously added NO into nitrate and thus in suitable cell systems (such as for example the tumour cell line MKN-45) can prevent apoptosis induction by NO/peroxynitrite.
# This rules out a test substance having an influence over the reaction as a whole, through modulation of the catalase activity. The hydrogen peroxide released following the catalase inhibition is fully decomposed by 20-25 μM of the catalase mimetic EUK-134 (similar to the abovementioned EUK-8, but with a lower peroxidise activity). In this way both the HOCl pathway and the consumption of NO by hydrogen peroxide are prevented. For the modulation of the available NO concentration with the known mechanisms now only the NOD remains. If this is inhibited then the addition of exogenous NO leads to an increased apoptosis induction.
# 12 500 MKN-45 cells in 100 μl Medium had 200 mM 3-AT, 2.4 mM NAME, 25 μM EUK-134 and the stated concentrations of epothilone B (“EPO”) added. […] Then the stated concentrations of the NO donor DEANONOate were added and the preparations were incubated for a further 2 hours at 37° C. before the percentages of apoptotic cells were determined.
# The experiment was carried out in the same way as described in FIG. 10, but with the difference that the stated concentrations of DADS (FIG. 11A) or Taxol (FIG. 11B) were used and the determination of the apoptotic cells took place after 3 hours.
# [3] = tested on: transformed 208Fsrc3 cells; assay: apoptosis induction mediated by added myeloperoxidase (MPO); type: cell-based, rat; settings: 200 mU/ml MPO; 100 U/ml catalase, 50 mM taurine, 10 mM mannitol; 5 hours
# Procedure: Instead of the autocrine apoptosis induction illustrated in Example 1, in the experiment illustrated in Example 2 the HOCl signalling pathway is accelerated by addition of exogenous MPO (FIG. 2A) or the NO/peroxynitrite pathway is induced by addition of the rapidly decomposing NO donor DEA NONOate.
# 12 500 transformed 208Fsrc3 cells per preparation (96 hole plate, 100 μl medium) were sown. Under A these also received 200 mU/ml MPO, and under B additionally 1.5 mM DEA NONOate. Control preparations remained free of MPO or DEA NONOate. In Part A additionally 100 U/ml catalase (KAT), 50 mM taurine (TAU), and 10 mM mannitol (MANN) were used.
# In FIG. 2B the addition took place of 25 μM of the catalytically effective peroxynitrite destroyer FeTPPS. The duplicate preparations under A were assessed after 5 hours, and those under B after just 3 hours. […] The inhibitors confirm the involvement of hydrogen peroxide (inhibition by catalase), HOCl (inhibition by taurine), and hydroxyl radicals (inhibition by mannitol). Again a bell curve was obtained, the right part of which is dependent upon the availability of HOCl and the effect of hydroxyl radicals.
# [4] = tested on: human lymphoma line Gumbus; assay: catalase deactivation of tumour cells (hydrogen peroxide induced apoptosis); type: cell-based; settings: 1.5 hours
# Procedure: 25 000 cells of the human lymphoma line Gumbus/100 μl medium had the stated concentrations of hydrogen peroxide added without 3-AT or in the presence of 50 mM or 100 mM of the catalase inhibitor 3-AT. After 1.5 hours in duplicate preparations the apoptosis induction was determined.
# FIG. 14B: Gumbus cells were pre-incubated without Taxol (control) or with 10 μg/ml Taxol for 30 minutes at 37° C. Parallel preparations were either free of further substances or contained 2 mM histidine (singlet oxygen-receptor), 25 μM FeTPPS (catalytically-acting peroxynitrite destroyer) or 25 U/ml catalase (CAT). Following pre-incubation the cells were separated by centrifugation, absorbed in fresh medium and the stated concentrations of hydrogen peroxide added. After 1.5 hours the assessment was performed in the duplicate preparations.
molecule,measurement,setting,value
Cu SOD: Cu-containing superoxide dismutase from bovine erythroctes,effect of higher SOD concentrations on apoptosis,[1],renewed increase in the apoptosis
same,effect of Cu SOD on EUK-8-mediated apoptosis,"208Fsrc3 cells; 120 μM EUK-8, 12 500 cells, 5 hours",leads to a bell curve
same,SOD concentration at the vertex (maximum inhibition),"208Fsrc3 cells; 6 250 cells, 120 μM EUK-8, 1.5 hours",0.57 U/ml
C/C(=C\c1csc(C)n1)[C@@H]1C[C@@H]2O[C@]2(C)CCC[C@H](C)[C@H](O)[C@@H](C)C(=O)C(C)(C)[C@@H](O)CC(=O)O1 [epothilone B],effect on superoxide anion production,[2],did not demonstrate any effect
same,stimulation of the NADPH oxidase,[2],simultaneous stimulation of the NADPH oxidase
same,increase in superoxide anion production,"[2]; highest concentration of epothilone B, 150 mM 3-AT, 8 hours",fourfold
same,apoptosis induction,"MKN-45 cells; 0.75 ng/ml epothilone B alone, 3 hours",neither the low epothilone B concentration nor resveratrol on its own was able to induce apoptosis
same,effect on DEA NONOate-dependent apoptosis (NOD inhibition),"NO dioxygenase (NOD); all concentrations used, 200 mM 3-AT, 2.4 mM NAME, 25 μM EUK-134, 2 hours",led to an increase in the DEA-NONOATE-dependent apoptosis
same,available NO concentration through inhibition of the NOD,NO dioxygenase (NOD),increase in the available NO concentration
"C=CCSSCC=C [DADS, diallyl disulfide]",effect on available NO concentration (NOD inhibition),NO dioxygenase (NOD),led to an increase in the available NO concentration
catalase,effect on MPO-mediated apoptosis (HOCl pathway),[3],inhibition
N=C(N)NCCC[C@H](N)C(=O)O [arginine],apoptosis induction by arginine alone,MKN-45 cells,concentration-dependent apoptosis induction
same,dependence of apoptosis on caspase-8 / FAS,MKN-45 cells,strictly dependent upon the involvement of a caspase-8-mediated step
Oc1cc(O)c2cc(O)c(-c3ccc(O)c(O)c3)[o+]c2c1.[Cl-] [cyanidin chloride],dependence of the effect on caspase-8,"MKN-45 cells; high cyanidin chloride concentration, 3 hours",dependent upon caspase-8
C=CCN=C=S [allyl isothiocyanate],stimulation of the NADPH oxidase,[2],simultaneous stimulation of the NADPH oxidase
same,available NO concentration through inhibition of the NOD,NO dioxygenase (NOD),increase in the available NO concentration
"NNC(=O)c1ccc(N)cc1 [ABH, 4-aminobenzoylhydrazide]",effect on autocrine apoptosis,[1],completely inhibited
"Nc1nc[nH]n1 [3-AT, 3-aminotriazole]",effect on catalase protection against exogenous hydrogen peroxide,[4]; 50 mM or 100 mM 3-AT,can be reversed
CC(=O)O[C@H]1C(=O)[C@@]2(C)[C@H]([C@H](OC(=O)c3ccccc3)[C@]3(O)C[C@H](OC(=O)[C@H](O)[C@@H](NC(=O)c4ccccc4)c4ccccc4)C(C)=C1C3(C)C)[C@]1(OC(C)=O)CO[C@@H]1C[C@@H]2O [Taxol],effect on catalase protection against exogenous hydrogen peroxide,"[4]; pre-incubation with 10 μg/ml Taxol for 30 minutes, washed",has the same effect as 3-AT
same,stimulation of the NADPH oxidase compared with epothilone B,[2]; data not shown,behaves in the same way
same,stimulation of the NADPH oxidase,[2],simultaneous stimulation of the NADPH oxidase
same,apoptosis induction,"MKN-45 cells; 0.013 μg/ml Taxol alone, 4.5 hours",induced no apoptosis
same,apoptosis induction,"MKN-45 cells; 10 μg/ml Taxol alone, 4.5 hours",clear apoptosis induction
same,effect on available NO concentration (NOD inhibition),NO dioxygenase (NOD),led to an increase in the available NO concentration
same,available NO concentration through inhibition of the NOD,NO dioxygenase (NOD),increase in the available NO concentration
Photofrin,stimulation of the NADPH oxidase by singlet oxygen,"[2]; 1 μg/ml Photofrin exposed to light, 100 mM 3-AT, 5 hours",significant stimulation of the NADPH oxidase
Oc1ccc(C=Cc2cc(O)cc(O)c2)cc1 [resveratrol],increase in superoxide anion production,"[2]; 4 or 20 μg/ml resveratrol, 120 μM EUK-8, 4 hours",8-16 times
same,apoptosis induction,"MKN-45 cells; 25 μg/ml resveratrol alone, 3 hours",neither the low epothilone B concentration nor resveratrol on its own was able to induce apoptosis
same,apoptosis induction by resveratrol alone,"MKN-45 cells; 0.2 or 20 μM resveratrol, 4.5 hours",little more than background apoptosis
same,apoptosis induction,"MKN-45 cells; each stated concentration of resveratrol alone, 4.5 hours",induced no apoptosis
same,inhibitory capability of the NOD,NO dioxygenase (NOD); data not shown,no indications of an inhibitory capability of the NOD
NCCS(=O)(=O)O [taurine],effect on MPO-mediated apoptosis (HOCl pathway),[3],inhibition
same,effect on autocrine apoptosis,[1],completely inhibited
OC[C@@H](O)[C@@H](O)[C@H](O)[C@H](O)CO [mannitol],effect on MPO-mediated apoptosis (HOCl pathway),[3],inhibition
same,effect on autocrine apoptosis,[1],completely inhibited
"Mn SOD: Mn-containing superoxide dismutase from E. coli (protein, UniProt P00448 2-206, looked up) Superoxide dismutase [Mn]: SYTLPSLPYAYDALEPHFDKQTMEIHHTKHHQTYVNNANAALESLPEFANLPVEELITKLDQLPADKKTVLRNNAGGHANHSLFWKGLKKGTTLQGDLKAAIERDFGSVDNFKAEFEKAAASRFGSGWAWLVLKGDKLAVVSTANQDSPLMGEAISGASGFPIMGLDVWEHAYYLKFQNRRPDYIKEFWNVVNWDEAAARFAAKK",effect of higher SOD concentrations on apoptosis,[1],once the maximum inhibition has been reached this is maintained
"MPO: exogenous myeloperoxidase (protein, UniProt P05164 165-745, looked up) Myeloperoxidase: VTCPEQDKYRTITGMCNNRRSPTLGASNRAFVRWLPAEYEDGFSLPYGWTPGVKRNGFPVALARAVSNEIVRFPTDQLTPDQERSLMFMQWGQLLDHDLDFTPEPAARASFVTGVNCETSCVQQPPCFPLKIPPNDPRIKNQADCIPFFRSCPACPGSNITIRNQINALTSFVDASMVYGSEEPLARNLRNMSNQLGLLAVNQRFQDNGRALLPFDNLHDDPCLLTNRSARIPCFLAGDTRSSEMPELTSMHTLLLREHNRLATELKSLNPRWDGERLYQEARKIVGAMVQIITYRDYLPLVLGPTAMRKYLPTYRSYNDSVDPRIANVFTNAFRYGHTLIQPFMFRLDNRYQPMEPNPRVPLSRVFFASWRVVLEGGIDPILRGLMATPAKLNRQNQIAVDEIRERLFEQVMRIGLDLPALNMQRSRDHGLPGYNAWRRFCGLPQPETVGQLGTVLRNLKLARKLMEQYGTPNNIDIWMGGVSEPLKRKGRVGPLLACIIGTQFRKLRDGDRFWWENEGVFSMQQRQALAQISLPRIICDNTGITTVSKNNIFMSNSYPRDFVNCSTLPALNLASWREAS",effect on MPO-mediated apoptosis (HOCl pathway),[3],accelerates the HOCl pathway
